Reference: ChEMBL document CHEMBL4251606, “Design and characterization of α-lipoic acyl shikonin ester twin drugs as tubulin and PDK1 dual inhibitors” (Eur J Med Chem, 2018)
Activity calls are given as the source filed them. The rule behind the calls is not given here.

Legend:
HeLa [1] = experiment: Cell cycle arrest in human HeLa cells assessed as accumulation of cells at G2/M phase at 4 uM after 24 hrs by propidium iodide staining-based FACScan flow cytometric analysis (reference value: 16.82%); format: functional
HeLa [2] = experiment: Cell cycle arrest in human HeLa cells assessed as accumulation of cells at S phase at 8 uM after 24 hrs by propidium iodide staining-based FACScan flow cytometric analysis (reference value: 20.16%); format: functional
HeLa [3] = experiment: Induction of apoptosis in human HeLa cells assessed as early apoptotic cells at 2 uM after 24 hrs by Annexin V-APC/propidium iodide staining-based FACScan flow cytometric analysis (reference value: 6.46%); format: functional
HeLa [4] = experiment: Induction of apoptosis in human HeLa cells assessed as viable cells at 6 uM after 36 hrs by Annexin V-APC/propidium iodide staining-based FACScan flow cytometric analysis (reference value: 93%); format: functional; conditions: read-out: Activity
HeLa [5] = experiment: Induction of apoptosis in human HeLa cells assessed as increase in cleaved PARP expression up to 8 uM after 24 hrs by Western blot analysis; format: functional, cell-based

**Q.** What does the source list for CC(C)=CC[C@@H](OC(=O)CCCC[C@@H]1CCSC(c2ccccc2)S1)C1=CC(=O)c2c(O)ccc(O)c2C1=O (stereo not given in full)?
**A.** Activity (HeLa [1]): 45.2%; Activity (HeLa [2]): 32.14%; Activity (HeLa [3]): 15.5%; viability at 6 µM (HeLa [4]): 26.4%; Activity (HeLa [5]): Active
